Numbers after ± are expanded uncertainties.
Experiment: xn = mol fraction of the nth substance listed
Conditions: 101 kPa, Liquid, Vibrating tube method

CC(O)CN (centres undefined) [1-amino-2-propanol] + O
mass density [kg/m3]
Conditions	298.15 K	303.15 K	308.15 K	313.15 K	318.15 K
x2 = 0.0438	–	954.42 ± 0.47	950.39 ± 0.46	946.34 ± 0.46	942.26 ± 0.46
x2 = 0.0801	–	956.01 ± 0.45	952 ± 0.45	947.96 ± 0.45	943.89 ± 0.45
x2 = 0.1269	–	958.41 ± 0.43	954.42 ± 0.43	950.39 ± 0.43	946.33 ± 0.42
x2 = 0.1584	–	959.89 ± 0.41	955.9 ± 0.41	951.88 ± 0.41	947.83 ± 0.41
x2 = 0.2003	–	962.09 ± 0.4	958.11 ± 0.39	954.1 ± 0.39	950.06 ± 0.39
x2 = 0.2999	–	967.94 ± 0.35	963.99 ± 0.35	960 ± 0.35	955.98 ± 0.35
x2 = 0.3498	–	971.12 ± 0.33	967.18 ± 0.33	963.21 ± 0.32	959.19 ± 0.32
x2 = 0.3999	–	974.27 ± 0.3	970.34 ± 0.3	966.36 ± 0.3	962.35 ± 0.3
x2 = 0.4499	–	977.71 ± 0.28	973.78 ± 0.28	969.81 ± 0.28	965.8 ± 0.28
x2 = 0.4968	–	981.12 ± 0.26	977.19 ± 0.26	973.23 ± 0.26	969.22 ± 0.26
x2 = 0.5122	–	982.33 ± 0.25	978.4 ± 0.25	974.44 ± 0.25	–
x2 = 0.5501	–	985.01 ± 0.24	981.09 ± 0.23	977.12 ± 0.23	–
x2 = 0.6001	–	988.93 ± 0.21	985.01 ± 0.21	981.05 ± 0.21	–
x2 = 0.6501	–	992.61 ± 0.19	988.7 ± 0.19	984.75 ± 0.19	–
x2 = 0.7	–	996.09 ± 0.16	992.22 ± 0.16	988.3 ± 0.16	–
x2 = 0.7501	1002.84 ± 0.14	999.1 ± 0.14	995.31 ± 0.14	991.48 ± 0.14	–
x2 = 0.8	1004.58 ± 0.11	1001.02 ± 0.11	997.41 ± 0.11	993.74 ± 0.12	–
x2 = 0.84	1004.86 ± 0.1	1001.58 ± 0.09	998.22 ± 0.09	994.79 ± 0.1	–
x2 = 0.88	1003.61 ± 0.08	1000.73 ± 0.08	997.76 ± 0.08	994.67 ± 0.08	–
x2 = 0.92	1001.17 ± 0.07	998.83 ± 0.07	996.33 ± 0.07	993.7 ± 0.07	–
x2 = 0.96	998.26 ± 0.07	996.47 ± 0.06	994.49 ± 0.06	992.33 ± 0.06	–
